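Tested at 5 concentrations; 48 h exposure; 96-well plates; endpoints linearly interpolated, else capped at highest concentration. At the TGI there is no net growth.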
Tests used:
Test in all cases: inhibition of tumour cell growth, NCI panel, 48 h
786-0 renal = test system: 786-0 renal
A549 NSCLC = test system: A549 NSCLC
ACHN renal = test system: ACHN renal
CAKI-1 renal = test system: CAKI-1 renal
COLO 205 colon = test system: COLO 205 colon
DU-145 prostate = test system: DU-145 prostate
EKVX NSCLC = test system: EKVX NSCLC
HCC-2998 colon = test system: HCC-2998 colon
HCT-116 colon = test system: HCT-116 colon
HCT-15 colon = test system: HCT-15 colon
HOP-62 NSCLC = test system: HOP-62 NSCLC
HS 578T breast = test system: HS 578T breast
HT29 colon = test system: HT29 colon
IGROV1 ovarian = test system: IGROV1 ovarian
KM12 colon = test system: KM12 colon
LOX IMVI melanoma = test system: LOX IMVI melanoma
M14 melanoma = test system: M14 melanoma
MALME-3M melanoma = test system: MALME-3M melanoma
MCF7 breast = test system: MCF7 breast
MDA-MB-231 breast = test system: MDA-MB-231 breast
MDA-MB-435 = test system: MDA-MB-435
MDA-N = test system: MDA-N
MOLT-4 leukemia = test system: MOLT-4 leukemia
NCI-H226 lung = test system: NCI-H226 lung
NCI-H23 lung = test system: NCI-H23 lung
NCI-H460 lung = test system: NCI-H460 lung
NCI/ADR-RES ovarian = test system: NCI/ADR-RES ovarian
OVCAR-3 ovarian = test system: OVCAR-3 ovarian
OVCAR-4 ovarian = test system: OVCAR-4 ovarian
OVCAR-5 ovarian = test system: OVCAR-5 ovarian
OVCAR-8 ovarian = test system: OVCAR-8 ovarian
PC-3 prostate = test system: PC-3 prostate
RPMI-8226 leukemia = test system: RPMI-8226 leukemia
RXF 393 renal = test system: RXF 393 renal
SF-268 CNS = test system: SF-268 CNS
SF-295 CNS = test system: SF-295 CNS
SF-539 CNS = test system: SF-539 CNS
SK-MEL-2 melanoma = test system: SK-MEL-2 melanoma
SK-MEL-28 melanoma = test system: SK-MEL-28 melanoma
SK-MEL-5 melanoma = test system: SK-MEL-5 melanoma
SK-OV-3 ovarian = test system: SK-OV-3 ovarian
SN12C renal = test system: SN12C renal
SNB-19 CNS = test system: SNB-19 CNS
SNB-75 CNS = test system: SNB-75 CNS
SR leukemia = test system: SR leukemia
SW-620 colon = test system: SW-620 colon
T-47D breast = test system: T-47D breast
TK-10 renal = test system: TK-10 renal
U251 CNS = test system: U251 CNS
UACC-257 melanoma = test system: UACC-257 melanoma
UACC-62 melanoma = test system: UACC-62 melanoma
UO-31 renal = test system: UO-31 renal
A498 renal = test system: A498 renal
BT-549 breast = test system: BT-549 breast
CCRF-CEM leukemia = test system: CCRF-CEM leukemia
HL-60(TB) leukemia = test system: HL-60(TB) leukemia
HOP-92 NSCLC = test system: HOP-92 NSCLC
NCI-H522 lung = test system: NCI-H522 lung

## Nc1ncnc2c1ncn2C1C=CC(CP(=O)(O)O)C1 (stereo not drawn)
786-0 renal
  TGI: > 100 µM
A549 NSCLC
  TGI: > 100 µM
ACHN renal
  TGI: > 100 µM
CAKI-1 renal
  TGI: > 100 µM
COLO 205 colon
  TGI: > 100 µM
DU-145 prostate
  TGI: > 100 µM
EKVX NSCLC
  TGI: > 100 µM
HCC-2998 colon
  TGI: > 100 µM
HCT-116 colon
  TGI: > 100 µM
HCT-15 colon
  TGI: > 100 µM
HOP-62 NSCLC
  TGI: > 100 µM
HS 578T breast
  TGI: > 100 µM
HT29 colon
  TGI: > 100 µM
IGROV1 ovarian
  TGI: > 100 µM
KM12 colon
  TGI: > 100 µM
LOX IMVI melanoma
  TGI: > 100 µM
M14 melanoma
  TGI: > 100 µM
MALME-3M melanoma
  TGI: > 100 µM
MCF7 breast
  TGI: > 100 µM
MDA-MB-231 breast
  TGI: > 100 µM
MDA-MB-435
  TGI: > 100 µM
MDA-N
  TGI: > 100 µM
MOLT-4 leukemia
  TGI: > 100 µM
NCI-H226 lung
  TGI: > 100 µM
NCI-H23 lung
  TGI: > 100 µM
NCI-H460 lung
  TGI: > 100 µM
NCI/ADR-RES ovarian
  TGI: > 100 µM
OVCAR-3 ovarian
  TGI: > 100 µM
OVCAR-4 ovarian
  TGI: > 100 µM
OVCAR-5 ovarian
  TGI: > 100 µM
OVCAR-8 ovarian
  TGI: > 100 µM
PC-3 prostate
  TGI: > 100 µM
RPMI-8226 leukemia
  TGI: > 100 µM
RXF 393 renal
  TGI: > 100 µM
SF-268 CNS
  TGI: > 100 µM
SF-295 CNS
  TGI: > 100 µM
SF-539 CNS
  TGI: > 100 µM
SK-MEL-2 melanoma
  TGI: > 100 µM
SK-MEL-28 melanoma
  TGI: > 100 µM
SK-MEL-5 melanoma
  TGI: > 100 µM
SK-OV-3 ovarian
  TGI: > 100 µM
SN12C renal
  TGI: > 100 µM
SNB-19 CNS
  TGI: > 100 µM
SNB-75 CNS
  TGI: > 100 µM
SR leukemia
  TGI: > 100 µM
SW-620 colon
  TGI: > 100 µM
T-47D breast
  TGI: > 100 µM
TK-10 renal
  TGI: > 100 µM
U251 CNS
  TGI: > 100 µM
UACC-257 melanoma
  TGI: > 100 µM
UACC-62 melanoma
  TGI: > 100 µM
UO-31 renal
  TGI: > 100 µM

## OCC1NCC(O)C(O)C1O (stereo not drawn)
786-0 renal
  TGI: > 100 µM
A498 renal
  TGI: > 100 µM
A549 NSCLC
  TGI: > 100 µM
ACHN renal
  TGI: > 100 µM
BT-549 breast
  TGI: > 100 µM
CAKI-1 renal
  TGI: > 100 µM
CCRF-CEM leukemia
  TGI: > 100 µM
COLO 205 colon
  TGI: > 100 µM
DU-145 prostate
  TGI: > 100 µM
EKVX NSCLC
  TGI: > 100 µM
HCC-2998 colon
  TGI: > 100 µM
HCT-116 colon
  TGI: > 100 µM
HCT-15 colon
  TGI: > 100 µM
HL-60(TB) leukemia
  TGI: > 100 µM
HOP-62 NSCLC
  TGI: > 100 µM
HOP-92 NSCLC
  TGI: > 100 µM
HS 578T breast
  TGI: > 100 µM
HT29 colon
  TGI: > 100 µM
IGROV1 ovarian
  TGI: > 100 µM
KM12 colon
  TGI: > 100 µM
M14 melanoma
  TGI: > 100 µM
MALME-3M melanoma
  TGI: 55.8 µM
MCF7 breast
  TGI: > 100 µM
MDA-MB-435
  TGI: > 100 µM
MDA-N
  TGI: > 100 µM
MOLT-4 leukemia
  TGI: > 100 µM
NCI-H23 lung
  TGI: > 100 µM
NCI-H460 lung
  TGI: > 100 µM
NCI-H522 lung
  TGI: > 100 µM
OVCAR-3 ovarian
  TGI: > 100 µM
OVCAR-4 ovarian
  TGI: > 100 µM
OVCAR-5 ovarian
  TGI: > 100 µM
OVCAR-8 ovarian
  TGI: > 100 µM
PC-3 prostate
  TGI: > 100 µM
RPMI-8226 leukemia
  TGI: > 100 µM
RXF 393 renal
  TGI: > 100 µM
SF-268 CNS
  TGI: > 100 µM
SF-539 CNS
  TGI: > 100 µM
SK-MEL-28 melanoma
  TGI: > 100 µM
SK-MEL-5 melanoma
  TGI: > 100 µM
SK-OV-3 ovarian
  TGI: > 100 µM
SN12C renal
  TGI: > 100 µM
SNB-19 CNS
  TGI: > 100 µM
SNB-75 CNS
  TGI: > 100 µM
SR leukemia
  TGI: > 100 µM
SW-620 colon
  TGI: > 100 µM
TK-10 renal
  TGI: > 100 µM
U251 CNS
  TGI: > 100 µM
UACC-257 melanoma
  TGI: > 100 µM
UACC-62 melanoma
  TGI: > 100 µM
UO-31 renal
  TGI: > 100 µM

Reference: PubChem BioAssay (NCI)
